pIC50: −log10 of the molar value.
Experiments:
human VR1 = target: T1, human VR1 (Homo sapiens, UniProt Q8NER1); assay: Capsaicin-induced Ca2+ influx in the human VR1-transfected CHO cell line (Assay 1); type: cell-based; details: read-out: hVR1 class
T1 construct: The cloned hVR1 cDNA was constructed with pcDNA3 vector and transfected into a CHOluc9aeq cell line; expressed in transfected cells
Description: [Measurement of Capsaicin-Induced Ca^2+ Influx in the Human VR1-Transfected CHO Cell Line] (Assay 1)
(1) Establishment of the Human VR1-CHOluc9aeq Cell Line
Human vanilloid receptor (hVR1) cDNA was cloned from libraries of axotomized dorsal root ganglia (WO2000/29577). The cloned hVR1 cDNA was constructed with pcDNA3 vector and transfected into a CHOluc9aeq cell line. The cell line contains aequorin and CRE-luciferase reporter genes as read-out signals. The transfectants were cloned by limiting dilution in selection medium (DMEM/F12. medium (Gibco BRL) supplemented with 10% FCS, 1.4 mM Sodium pyruvate, 20 mM HEPES, 0.15% Sodium bicarbonate, 100 U/ml penicillin, 100 μg/ml strept mycin, 2 mM glutamine, non-essential amino acids and 2 mg/ml G418). Ca^2+ influx was examined in the capsaicin-stimulated clones. A high responder clone was selected and used for further experiments in the project. The human VR1-CHOluc9aeq cells were maintained in the selection medium and passaged every 3-4 days at 1-2.5×10^5 cells/flask ([…]).
(2) Measurement of Ca^2+ Influx Using FDSS-3000
Human VR1-CHOluc9aeq cells were suspended in a culture medium which is the same as the selection medium except for G418 and seeded at a density of 1,000 cells per well into 384-well plates (black walled clear-base/Nalge Nunc International). Following the culture for 48 hrs the medium was changed to 2 μM Fluo-3 AM (Molecular Probes) and 0.02% Puronic F-127 in assay buffer (Hank's balanced salt solution (HBSS), 17 mM HEPES (pH7.4), 1 mM Probenecid, 0.1% BSA) and the cells were incubated for 60 min at 25° C. After washing twice with assay buffer the cells were incubated with a test compound or vehicle for 20 min at 25° C. Mobilization of cytoplasmic Ca^2+ was measured by FDSS-3000 (λex=488 nm, λem=540 nm/Hamamatsu Photonics) for 60 sec after the stimulation with 10 nM capsaicin. Integral R was calculated and compared with controls.
The data corresponds to the compounds as yielded by solid phase synthesis and thus to levels of purity of about 40 to 90%.

T1 sequence (Q8NER1 whole entry): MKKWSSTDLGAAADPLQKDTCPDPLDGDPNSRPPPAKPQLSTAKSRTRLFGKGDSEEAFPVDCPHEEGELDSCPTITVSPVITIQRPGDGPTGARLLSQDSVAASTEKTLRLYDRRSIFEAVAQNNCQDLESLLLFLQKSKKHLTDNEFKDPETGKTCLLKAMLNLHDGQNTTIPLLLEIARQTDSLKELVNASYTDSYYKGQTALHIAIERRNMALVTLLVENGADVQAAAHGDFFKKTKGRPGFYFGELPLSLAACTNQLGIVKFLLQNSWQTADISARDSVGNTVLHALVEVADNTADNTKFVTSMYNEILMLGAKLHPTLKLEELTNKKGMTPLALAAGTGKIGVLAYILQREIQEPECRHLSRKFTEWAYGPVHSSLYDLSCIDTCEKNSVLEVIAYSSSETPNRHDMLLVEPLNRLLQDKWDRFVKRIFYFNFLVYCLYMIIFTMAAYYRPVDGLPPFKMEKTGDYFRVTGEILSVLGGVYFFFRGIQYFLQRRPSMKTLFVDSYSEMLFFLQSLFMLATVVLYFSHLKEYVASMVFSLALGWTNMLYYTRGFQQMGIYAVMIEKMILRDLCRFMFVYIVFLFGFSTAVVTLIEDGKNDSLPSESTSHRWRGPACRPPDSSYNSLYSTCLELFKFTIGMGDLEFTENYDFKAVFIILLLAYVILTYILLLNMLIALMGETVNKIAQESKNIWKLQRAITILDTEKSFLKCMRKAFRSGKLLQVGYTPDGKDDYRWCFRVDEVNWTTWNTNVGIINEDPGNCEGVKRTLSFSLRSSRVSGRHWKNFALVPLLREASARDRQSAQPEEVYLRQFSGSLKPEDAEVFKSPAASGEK

Structure (SMILES)	pIC50 (human VR1)	melting point
O=C(Nc1ccc(Oc2ccccc2)cc1)Nc1cccc2cc[nH]c12 [Example 12]	6.30 to 7.00	216 to 218 °C
Cc1nc2cc(NC(=O)Nc3ccc(Br)cc3)ccc2[nH]1 [Example 52]	6.00 to 6.30	> 250 °C
Cc1nc2cc(NC(=O)Nc3ccc(C(C)C)cc3)ccc2[nH]1 [Example 50]	6.00 to 6.30	> 250 °C
CSc1nc2ccc(NC(=O)Nc3ccc(Cl)c(C(F)(F)F)c3)cc2s1 [Example 14]	6.30 to 7.00	236 to 238 °C
O=C(Nc1ccc(F)cc1)Nc1ccc2[nH]ccc2c1 [Example 72]	6.00 to 6.30	243 to 245 °C
O=C(Nc1cccc2ccccc12)Nc1cccc2[nH]ccc12 [Example 62]	> 7.00	> 250 °C
COc1cccc(NC(=O)Nc2ccc3[nH]c(C(F)(F)F)nc3c2)c1 [Example 79]	6.00 to 6.30	233 to 237 °C
CSc1ccc(NC(=O)Nc2cccc3[nH]ccc23)cc1 [Example 82]	6.00 to 6.30	228 to 231 °C
Cc1nc2cc(NC(=O)Nc3ccc(Br)cc3)ccc2s1 [Example 26]	> 7.00	> 250 °C
O=C(Nc1ccc(F)cc1)Nc1ccc2[nH]ncc2c1 [Example 67]	6.00 to 6.30	> 250 °C
Cc1nc2cc(NC(=O)Nc3ccc(Oc4ccccc4)cc3)ccc2s1 [Example 25]	> 7.00	228 to 229 °C
Cc1nc2c(NC(=O)Nc3ccc(C(C)C)cc3)cccc2[nH]1 [Example 55]	6.30 to 7.00	216 to 218 °C
O=C(Nc1ccc(Cl)c(C(F)(F)F)c1)Nc1cccc2cc[nH]c12 [Example 7]	> 7.00	229 to 233 °C
CSc1cccc(NC(=O)Nc2ccc3sc(C)nc3c2)c1 [Example 21]	6.30 to 7.00	225 to 227 °C
Cc1cccc(NC(=O)Nc2ccc3sc(C)nc3c2)c1 [Example 20]	> 7.00	200 to 202 °C
O=C(Nc1ccc(F)cc1)Nc1cccc2[nH]ccc12 [Example 35]	6.30 to 7.00	239 to 241 °C
CSc1cccc(NC(=O)Nc2ccc3c(c2)S(=O)(=O)C=C3)c1 [Example 42]	6.30 to 7.00	212 to 213 °C
O=C(NCc1ccccc1Cl)Nc1cccc2[nH]ccc12 [Example 101]	6.30 to 7.00	237 to 238 °C
O=C(Nc1cccc(C(F)(F)F)c1)Nc1cccc2[nH]ccc12 [Example 41]	> 7.00	211 to 213 °C
O=C(Nc1ccc(Br)cc1)Nc1ccc2[nH]ccc2c1 [Example 74]	6.00 to 6.30	> 250 °C
O=C(Nc1cccc(C(F)(F)F)c1)Nc1ccc2c(c1)S(=O)(=O)C=C2 [Example 44]	–	> 250 °C
O=C(Nc1ccc(Cl)c(C(F)(F)F)c1)Nc1cccc2[nH]nnc12 [Example 4]	6.30 to 7.00	232 to 235 °C
O=C(Nc1ccc(F)c([N+](=O)[O-])c1)Nc1cccc2[nH]ccc12 [Example 98]	6.30 to 7.00	248 to 251 °C
O=C(Nc1cccc(Cl)c1)Nc1cccc2[nH]ccc12 [Example 87]	6.30 to 7.00	238 to 239 °C
O=C(Nc1ccc(Cl)c(C(F)(F)F)c1)Nc1ccc2[nH]nnc2c1 [Example 10]	6.30 to 7.00	> 250 °C
O=C(Nc1ccc(F)cc1)Nc1ccc2c(c1)S(=O)(=O)C=C2 [Example 43]	6.00 to 6.30	242 to 243 °C
Cc1nc2cc(NC(=O)Nc3ccc(F)cc3F)ccc2s1 [Example 30]	> 7.00	243 to 244 °C

Structure (SMILES)	pIC50 (human VR1)	melting point
O=C(Nc1ccc(Oc2ccccc2)cc1)Nc1cccc2[nH]ccc12 [Example 37]	6.30 to 7.00	212 to 214 °C
Cc1nc2cc(NC(=O)Nc3cccc(-c4ccc(Cl)cc4)c3)ccc2s1 [Example 47]	6.30 to 7.00	–
O=C(Nc1ccc(Cl)c(C(F)(F)F)c1)Nc1ccc2[nH]ccc2c1 [Example 5]	6.30 to 7.00	234 to 235 °C
O=C(Nc1ccc(Cl)c(C(F)(F)F)c1)Nc1cccc2[nH]ccc12 [Example 8]	> 7.00	230 to 233 °C
O=C(Nc1ccc2c(c1)C(=O)OC2)Nc1ccc(Cl)c(C(F)(F)F)c1 [Example 17]	6.30 to 7.00	> 250 °C
Cc1cccc(NC(=O)Nc2ccc3[nH]c(C(F)(F)F)nc3c2)c1 [Example 76]	6.00 to 6.30	245 to 247 °C
Cc1nc2cc(NC(=O)Nc3cc(C(F)(F)F)ccc3Cl)ccc2s1 [Example 32]	> 7.00	240 to 241 °C
O=C(Nc1ccc2ccccc2c1)Nc1cccc2[nH]ccc12 [Example 88]	6.30 to 7.00	242 to 243 °C
O=C(Nc1ccc(C(F)(F)F)cc1)Nc1cccc2[nH]ccc12 [Example 92]	6.30 to 7.00	242 to 243 °C
COc1cccc(NC(=O)Nc2ccc3sc(C)nc3c2)c1 [Example 24]	6.30 to 7.00	199 to 201 °C
Cc1nc2cc(NC(=O)Nc3ccc(F)cc3)ccc2s1 [Example 22]	> 7.00	241 to 242 °C
O=C(Nc1cccc(F)c1)Nc1cccc2[nH]ccc12 [Example 90]	6.00 to 6.30	225 to 226 °C
O=C(Nc1cc(C(F)(F)F)ccc1Cl)Nc1cccc2[nH]ccc12 [Example 68]	> 7.00	211 to 213 °C
O=C(Nc1ccc(F)cc1)Nc1ccc2[nH]c(C(F)(F)F)nc2c1 [Example 78]	6.00 to 6.30	242 to 243 °C
O=C(Nc1ccc(Oc2ccccc2)cc1)Nc1cccc2[nH]c(C(F)(F)F)nc12 [Example 106]	6.30 to 7.00	–
O=C(Nc1ccc(Oc2ccccc2)cc1)Nc1ccc2[nH]ccc2c1 [Example 69]	6.30 to 7.00	231 to 233 °C
CCOC(=O)c1cccc(NC(=O)Nc2cccc3[nH]ccc23)c1 [Example 85]	> 7.00	194 to 196 °C
COc1ccc(NC(=O)Nc2cccc3[nH]ccc23)cc1 [Example 61]	6.00 to 6.30	230 to 232 °C
O=C(Nc1ccc(Oc2ccccc2)cc1)Nc1ccc2[nH]cnc2c1 [Example 58]	6.30 to 7.00	235 to 237 °C
O=C(Nc1ccccc1F)Nc1cccc2[nH]ccc12 [Example 94]	6.00 to 6.30	244 to 246 °C
COc1ccccc1NC(=O)Nc1cccc2[nH]ccc12 [Example 84]	6.00 to 6.30	208 to 209 °C
O=C(NCc1ccc(Br)cc1)Nc1cccc2[nH]c(C(F)(F)F)nc12 [Example 105]	6.00 to 6.30	–
O=C(Nc1ccc(Cl)c(C(F)(F)F)c1)Nc1ccc2c(c1)S(=O)(=O)C=C2 [Example 13]	> 7.00	–
O=C(Nc1ccc(Cl)c(C(F)(F)F)c1)Nc1ccc2[nH]c(C(F)(F)F)nc2c1 [Example 104]	6.00 to 6.30	–
Cc1nc2cc(NC(=O)Nc3ccc(Cl)c(Cl)c3)ccc2s1 [Example 29]	> 7.00	–
Cc1cccc(NC(=O)Nc2ccc3[nH]ncc3c2)c1 [Example 103]	6.00 to 6.30	–

— patent publication US20050119304A1, “Urea derivatives” (priority 2001, published 2005)
